Measurements from ChEMBL document CHEMBL3085680, “Design and synthesis of P1-P3 macrocyclic tertiary-alcohol-comprising HIV-1 protease inhibitors” (J Med Chem, 2013).

What was measured:
[1] = Cytotoxicity against human MT4 cells after 5 days by XTT assay; assay type: cell-based
[2] = test system: Human immunodeficiency virus; experiment: Antiviral activity against HIV infected in human MT4 cells assessed as inhibition of virus-induced cytopathogenic effect by XTT assay; assay type: functional, organism-based; conditions: Human immunodeficiency virus 1, MT4
Protease = Protease (Human immunodeficiency virus 1, UniProt Q9YQ12); experiment: Inhibition of HIV1 protease expressed in Escherichia coli by fluorometric assay
Sequence of Protease (Q9YQ12 whole entry): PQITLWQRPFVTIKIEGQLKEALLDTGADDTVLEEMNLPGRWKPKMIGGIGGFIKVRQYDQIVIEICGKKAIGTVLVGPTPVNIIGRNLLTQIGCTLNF

[3] = Permeability of the compound across human Caco2 cells; assay type: ADME, cell-based; conditions: Caco-2, read-out: permeability

| Ki (Protease) | Papp [3] | SMILES | CC50 at 120 h [1] | EC50 [2] |
| --- | --- | --- | --- | --- |
| 0.011 µM |  | C=CCNC(=O)[C@@H](NC(=O)[C@@](O)(CCCN(Cc1ccc(Br)cc1)NC(=O)[C@@H](NC(=O)OC)C(C)(C)C)Cc1ccc(Br)cc1)C(C)C | 22 µM | 5.8 µM |
| 0.01 µM |  | C=CCNC(=O)[C@@H](NC(=O)[C@@](O)(CCCN(Cc1ccc(Br)cc1)NC(=O)[C@@H](NC(=O)OC)C(C)(C)C)Cc1ccc(Br)cc1)C(C)(C)C | 29 µM | 2.9 µM |
| 0.015 µM |  | C=CCNC(=O)[C@@H](NC(=O)[C@@](O)(CCCN(Cc1ccc(Br)cc1)NC(=O)[C@@H](NC(=O)OC)C(C)(C)C)Cc1ccc(C=C)cc1)C(C)C | 25 µM | 6.9 µM |
| 0.016 µM | 45 ×10⁻⁶ cm/s | C=CCNC(=O)[C@@H](NC(=O)[C@@](O)(CCCN(Cc1ccc(Br)cc1)NC(=O)[C@@H](NC(=O)OC)C(C)(C)C)Cc1ccc(C=C)cc1)C(C)(C)C | 44 µM | 5.3 µM |
| 0.03 µM | 44 ×10⁻⁶ cm/s | C=CCNC(=O)[C@@H](NC(=O)[C@@](O)(CCCN(Cc1ccc(Br)cc1)NC(=O)[C@@H](NC(=O)OC)C(C)(C)C)Cc1ccc(CC=C)cc1)C(C)C | 24 µM | 6 µM |
| 0.037 µM | 44 ×10⁻⁶ cm/s | C=CCNC(=O)[C@@H](NC(=O)[C@@](O)(CCCN(Cc1ccc(Br)cc1)NC(=O)[C@@H](NC(=O)OC)C(C)(C)C)Cc1ccc(CC=C)cc1)C(C)(C)C | > 50 µM | 7.5 µM |
| 1 µM |  | C=CCNC(=O)[C@@H](NC(=O)[C@](O)(CCCN(Cc1ccc(Br)cc1)NC(=O)[C@@H](NC(=O)OC)C(C)(C)C)Cc1ccc(Br)cc1)C(C)C | 4.5 µM | > 50 µM |
| 0.98 µM |  | C=CCNC(=O)[C@@H](NC(=O)[C@](O)(CCCN(Cc1ccc(Br)cc1)NC(=O)[C@@H](NC(=O)OC)C(C)(C)C)Cc1ccc(Br)cc1)C(C)(C)C | 21 µM | > 50 µM |
| 0.78 µM |  | C=CCNC(=O)[C@@H](NC(=O)[C@](O)(CCCN(Cc1ccc(Br)cc1)NC(=O)[C@@H](NC(=O)OC)C(C)(C)C)Cc1ccc(C=C)cc1)C(C)C | 5.8 µM | > 50 µM |
| 0.72 µM |  | C=CCNC(=O)[C@@H](NC(=O)[C@](O)(CCCN(Cc1ccc(Br)cc1)NC(=O)[C@@H](NC(=O)OC)C(C)(C)C)Cc1ccc(C=C)cc1)C(C)(C)C | 25 µM | > 50 µM |
| 0.005 µM | 31 ×10⁻⁶ cm/s | COC(=O)N[C@H](C(=O)NN(CCC[C@@]1(O)Cc2ccc(cc2)/C=C\CNC(=O)[C@H](C(C)(C)C)NC1=O)Cc1ccc(Br)cc1)C(C)(C)C | 40 µM | 3.3 µM |
| 0.0031 µM | 9 ×10⁻⁶ cm/s | COC(=O)N[C@H](C(=O)NN(CCC[C@@]1(O)Cc2ccc(cc2)C/C=C\CNC(=O)[C@H](C(C)C)NC1=O)Cc1ccc(Br)cc1)C(C)(C)C | > 50 µM | 0.37 µM |
| 0.0042 µM | 10 ×10⁻⁶ cm/s | COC(=O)N[C@H](C(=O)NN(CCC[C@@]1(O)Cc2ccc(cc2)C/C=C\CNC(=O)[C@H](C(C)(C)C)NC1=O)Cc1ccc(Br)cc1)C(C)(C)C | 30 µM | 1 µM |
|  |  | CNC(=O)[C@@H](NC(=O)[C@@](O)(CCCN(Cc1ccc(Br)cc1)NC(=O)[C@@H](NC(=O)OC)C(C)(C)C)Cc1ccccc1)C(C)C | > 10 µM | 2.1 µM |
